Experiments:
[1] = tested on: Crz1p nuclear localization (calcineurin pathway) in WT-P2X2 strain; experiment: GFP-Crz1p nuclear localization in P2X2 yeast after ATP injection; type: cell-based, S. cerevisiae; details: five minutes after ATP injection, 200 μM ATP (f.c.)
From the text: As further validation of P2X2 function in yeast, we sought to investigate whether P2X2 could trigger the calcineurin pathway, which is a native pathway controlled by calcium. After intracellular calcium levels rise, calcineurin regulates the nuclear localization of transcription factor Crz1p ([27]). To test if unnatural ion channels could activate this pathway, a GFP-tagged Crz1p was co-expressed with P2X2 in yeast. […] The degree of nuclear localization was double that of a negative control mutant P2X receptor.
Yeast strains EG.y156 WT-P2X2 or EG.y66 broken-P2X2 were transformed with EG.B723 GFP-tagged Crz1p. Yeast were cultured and induced as previously described. Cells were loaded onto a cell imaging microplate (Eppendorf, cat. no. 0030741030) that was pre-treated with Poly-D-lysine (50 μg/ml). Cells (50 μl) were attached to the plate for 30 min at room temperature, and wells were then gently washed three times with media to remove non-adherent cells. Cells were resuspended in 100 μl and imaged on a Cytation 5 Cell Imaging Multi-Mode reader. Cells were imaged before injection with the appropriate substrate, immediately after injection, and 5 or 10 min after injection. […] Nuclear localization events were automatically counted in Ilastik (https://www.ilastik.org/). Percent nuclear localization was counted as nuclear localization events divided by total cells.

[2] = target: T1, P2X2 G353R (Homo sapiens, UniProt Q9UBL9, G353R); experiment: Site-saturation screen, fast kinetic assay in yeast, G353R; type: cell-based; details: 500 μM ATP, ΔF/ΔT normalized to WT
T1 construct: expressed in transfected cells; host or cells: S. cerevisiae BY4741 background
Method: Figure 2 P2X2 SNP testing.A, homology model of P2X2 with the clinically implicated SNPs highlighted. V60 is highlighted in magenta and G353 is highlighted in dark blue. Lines indicate the positions of the mutations on each of the three monomers. B, zoomed view of the transmembrane region from the purple box in (A). V60 is magenta and G353 is dark blue. The structure is rotated 60° on the right image. C, screening data from site-saturation of the V60 residue in saturating ATP concentration (500 μM f.c.) using the fast kinetic assay. Signal onset values (ΔF/ΔT) are normalized to values from the WT receptor. […] Each of 2 to 3 replicates is represented as a single point. […]
GCaMP assays were performed as follows. […] Cells were loaded onto a black, clear bottom microplate and imaged on a FlexStation3 plate reader. […] Fluorescence was measured with an excitation at 485 nm, and emission 525 nm. […] For strains with mScarlet, fluorescence was read with excitation 570 nm/emission 610 nm. Slopes were calculated from the last 6 points of measurement and were normalized to the positive control samples. Any replicate in which the mScarlet value was measured to be over 2 standard deviations less than the mean for that set was discarded from further analysis.

[3] = target: T2, P2X2 N300T (Homo sapiens, UniProt Q9UBL9, N300T); experiment: Site-saturation screen of ligand-binding domain with ATP, N300T; type: cell-based; details: 500 μM ATP, ± sd
T2 construct: expressed in transfected cells; host or cells: S. cerevisiae BY4741 background
From the text: (§1) The yeast P2X2 screening platform poses an opportunity to probe the structure-function of the ligand-binding domain in detail. The conserved P2X “NFR” motif at residues 300 to 302 is directly involved in bonding to the ATP triphosphate moiety ([41]), so we mutagenized residues at or near this motif (298–304), ultimately covering 133 variants (7 sites, 19 residues each). […] We compared our results to phylogenetic data based on a multiple sequence alignment (MSA) from a curated set of 419 related P2X homologs (Figs. 3B, and S5; Table S1).
(§2) Figure 3 Structure-function analysis of the ligand binding domain.A, heat map summarizing the screening data of ATP with seven site-saturation libraries surrounding the NFR-motif. B, sequence-logo plot of the mutagenized residues and percent identity scores as determined from MSA. C, homology model of P2X2 colored by sequence conservation as calculated from a multiple sequence alignment of 419 related P2X genes. Conservation is scored on a log scale where maroon is more conserved and blue is less conserved. D, ATP in the ligand-binding pocket of P2X2. […]
(§3) GCaMP assays were performed as follows. […] Cells were loaded onto a black, clear bottom microplate and imaged on a FlexStation3 plate reader. […] Fluorescence was measured with an excitation at 485 nm, and emission 525 nm. […] For strains with mScarlet, fluorescence was read with excitation 570 nm/emission 610 nm. […]

[4] = target: T3, P2X2 R302 glutamine (R302Q) (Homo sapiens, UniProt Q9UBL9, R302Q); experiment: Site-saturation screen of ligand-binding domain with ATP, R302 glutamine; type: cell-based; details: 500 μM ATP, ± sd
T3 construct: expressed in transfected cells; host or cells: S. cerevisiae BY4741 background
From the text: as §1, §2, §3

[5] = target: T4, P2X2 A304I (Homo sapiens, UniProt Q9UBL9, A304I); experiment: Site-saturation screen of ligand-binding domain with ATP, A304I; type: cell-based; details: 500 μM ATP, ± sd
T4 construct: expressed in transfected cells; host or cells: Saccharomyces cerevisiae BY4741 derivative, genome-integrated, galactose-inducible
From the text: as §1, §2, §3

T1 sequence (Q9UBL9 whole entry G353R): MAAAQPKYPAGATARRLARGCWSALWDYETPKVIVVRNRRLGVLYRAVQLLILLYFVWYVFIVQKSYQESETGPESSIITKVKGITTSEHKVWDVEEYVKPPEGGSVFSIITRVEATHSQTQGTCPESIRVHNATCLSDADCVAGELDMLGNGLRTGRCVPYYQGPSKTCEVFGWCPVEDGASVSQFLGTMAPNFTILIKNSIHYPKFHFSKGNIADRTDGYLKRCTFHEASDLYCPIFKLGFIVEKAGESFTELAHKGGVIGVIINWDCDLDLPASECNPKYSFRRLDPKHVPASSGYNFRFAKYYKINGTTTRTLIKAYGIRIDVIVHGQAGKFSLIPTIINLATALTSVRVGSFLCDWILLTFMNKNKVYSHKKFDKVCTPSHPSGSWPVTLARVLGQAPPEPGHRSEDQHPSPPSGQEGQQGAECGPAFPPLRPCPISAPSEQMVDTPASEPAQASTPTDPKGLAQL
T2 sequence (Q9UBL9 whole entry N300T, the tested form may be a part): as the sequence (Q9UBL9 whole entry G353R) above, with N300T, R353G counted along it
T3 sequence (Q9UBL9 whole entry R302Q, the tested form may be a part): as the sequence (Q9UBL9 whole entry G353R) above, with R302Q, R353G counted along it
T4 sequence (Q9UBL9 whole entry A304I, the tested form may be a part): as the sequence (Q9UBL9 whole entry G353R) above, with A304I, R353G counted along it

## Nc1ncnc2c1ncn2[C@@H]1O[C@H](COP(=O)(O)OP(=O)(O)OP(=O)(O)O)[C@@H](O)[C@H]1O [ATP]
[1]
  degree of Crz1p nuclear localization relative to negative control mutant P2X receptor: double
[2]
  function in the assay: not observed to be functional
[3]
  signal, % of WT signaling: 51 ± 10%
[4]
  signal, % of WT signaling: 25 ± 28%
[5]
  signal, % of WT signaling: 24 ± 17%
